We go through six molecules from PMC5617738 (Toxicology Reports, 2016).

The subject of one data set is PBMCs. As to conditions: read-out: IC50 (toxicity on PBMCs); cited from earlier work.
The test system of the next data set is rodent. Conditions: cited from earlier work.
A further data set concerns HL-7702. Conditions: HL-7702 cells; cited from earlier work.
Data set [1] can be described thus: Solubility in test solution. In kind it is physicochemical. As to conditions: solution with a maximum of 1% DMSO.
A further data set deals with Plasmodium berghei. Conditions: P. berghei infected mice, cited from earlier work.
The test system of the next data set is murine macrophage cells. As to conditions: cited from earlier work.

Values after ≈ are worked out from the molar mass of the structure shown. Like-named read-outs stand apart in the source and are kept apart here.

Regarding `Cc1cc(O)c2c(c1)C(=O)C(O)=CC2=O` [2,5-Dihydroxy-7-methyl-1,4-naphthoquinone], in the data set on PBMCs, the half-maximal inhibitory concentration (IC50) was 54 µM.
In the case of `Cc1cc(O)c2c(c1)C(=O)C=CC2=O` [7-MJ, 5-Hydroxy-7-methyl-1,4-naphthoquinone], in the data set on PBMCs, the 50% inhibitory concentration (IC50) is 18.4 µM.
For the molecule `O=C1C=C(O)C(=O)c2ccccc21` [2-hydroxy-1,4-naphthoquinone], the In vivo toxicity entry with rodent was “highly toxic, causing both hemolytic anaemia and renal tubular necrosis”. Besides, the “Relative cytotoxicity among six naphthoquinones” value in the data set with HL-7702 is reported as “less toxic”.
On to `O=C1C(O)=C(Nc2ccccc2)C(=O)c2ccccc21` [4a, 2-hydroxy-3-anilino-1,4-naphthoquinone], for which the Solubility entry in data set [1] is reported as “soluble in the solution with a maximum of 1% DMSO”. For the same molecule, in the data set with Plasmodium berghei (vs untreated control), the “Parasitemia inhibition (%) Day 5” value was 53.3% and the “Parasitemia inhibition (%) Day 7” value is on record as 18.5%. In addition, in the data set on Plasmodium berghei, the “Mean Survival” value was 32.5 ± 6.6 days. Besides, the “Parasitemia Day 5” value in the data set with Plasmodium berghei (first Parasitemia column) was 0.7. For the same molecule, the “Parasitemia Day 5” value with Plasmodium berghei (second Parasitemia column, head printed Day 5) is given as 2.2.
On to `Cc1cc(O)c2c(c1F)C(=O)C=CC2=O` [8-Fluoro-5-hydroxy-7-methyl-1,4-naphthoquinone], for which the IC50 in the data set on PBMCs is 189 µM.
`COc1cc(C=O)ccc1O` [vanillin]: the half-inhibitory concentration (IC50) with murine macrophage cells was 645 µg/mL (≈ 4.24 mM).

For orientation: IC50 means the concentration that gives 50% inhibition.
